From US8227510B2, “Combine use of pterostilbene and quercetin for the production of cancer treatment medicaments” (Universitat de Valencia, priority 2004, dated 2012) come the findings set out here.

One data set relates to B16M-F10. The experiment in a line: Growth of hepatic metastases of B16M-F10 in mice. Format: in vivo. The conditions noted are these: 20 mg/kg i.v. daily x10 days; for Volume of metastases: none 22 ± 4; for Density of metastases: none 27 ± 5. How it is done: Hepatic metastases were induced by i.v. inoculations (portal vein), in anesthetized mice (Nembutal, 50 mg/kg i.p.), of 4×10^5 viable B16M-F10 cells suspended in 0.2 ml of DMEM. The mice were sacrificed by cervical dislocation 10 days after inoculation. The livers were fixed by immersion for 24 hours at 22° C. in 10% formaldehyde in PBS (pH 7.4), and were subsequently embedded in paraffin. The density of metastases (average number of foci/100 mm^3 of liver detected in fifteen sections of 10×10 mm^2 per liver) and the volume of metastases (average percentage of liver volume occupied by metastases) were determined as described previously (22).
This methodology makes it possible for the effect of PTER and QUER to be studied in vivo. For this purpose, mice were inoculated with B16M-F10 control cells or B16M-F10/Tet-Bcl-2 which overexpressed Bcl-2. Both subgroups of cells were cultivated beforehand in the absence or in the presence of t-PTER and QUER. B16M-F10 cells were cultivated for 72 hours. t-RESV (12 μM), t-PTER (40 μM), and QUER (20 μM) were added at 6, 30 and 54 hours of culture time, and were present in each case for just 60 minutes. Then they were removed from the culture flasks by washing (3 times with PBS) and the medium was renewed. The levels of Bcl-2 in the B16M-F10 control cells and cells treated with Tet-Bcl-2 were 24±5 and 105±14 units/mg of protein, respectively (n=5 in each case, P<0.01). The number of adhering cells shown in the table was calculated at 60 minutes postinjection (no significant differences were found when the measurements were effected at 30, 120, 180, 240 or 360 minutes postinjection, data not shown). The number of intact cells was calculated at 6 hours postinjection. The experimental microscopy data in vivo are mean values±SD corresponding to 4-5 different experiments. The growth of metastases in the liver was evaluated as stated in the corresponding section of the description, and in this case the mice were treated daily (×10 days) with t-PTER and/or QUER (20 mg/kg of body weight) administered i.v. (the data are mean values±SD corresponding to 25 mice per group). A similar method and equal number of mice per group were used for evaluating the survival of the carrier animals. The test of significance relates, in all the groups, to comparison between cases with PTER and/or QUER and cases without additions (*P<0.05 and **P<0.01), and to comparison between the B16M-F10/Tet-Bcl-2 cells with the B16M-F10 control cells (^+P<0.05, ^++P<0.01). […] This is the first time that the combined administration in vivo of natural polyphenols has induced inhibition of metastatic growth of a highly malignant tumor and an increase in the survival of the carrier.

The test system of another data set is B16M-F10 cells / HSE. In words: HSE-induced cytotoxicity on adhering B16M-F10 cells in vitro. The conditions noted are these: for Tumor cells Cytotoxicity (% of adhering): t-RESV 12 μM, t-PTER 40 μM, QUER 20 μM, after 6 hours of incubation, none 15 ± 2. It counts as cell-based, mice. From the text:
C57BL/6J mice were used (male, 10 to 12 weeks old) from IFFA Credo (L'Arbreole, France). The hepatic sinusoidal endothelium (HSE) was separated and identified as described previously (20). The sinusoidal cells were separated in a gradient of 17.5% metrizamide (w/v). The HSE cultures were established and maintained in pyrogen-free DMEM supplemented as described previously for the B16M-F10 cells. Differential adhesion of the endothelial cells to the collagen matrix and washing permitted complete removal of other types of sinusoidal cells (Kupffer's cells, astrocytes, lymphocytes) from the culture flasks.
The B16M-F10 cells were labeled with 2′,7′-bis-(2-carboxyethyl)-5-(and -6)-carboxyfluorescein acetoxymethyl ester (BCECF-AM; Moleculer Probes, Eugene, Oreg., USA) (10^6 cells were incubated for 20 minutes at 37° C. in 1 ml of DMEM buffered with HEPES that contained 50 μg of BCECF-AM and 5 μl of DMSO). After washing, the cells that contained BCECF-AM were resuspended in DMEM buffered with HEPES without phenol red at a concentration of 2.5×10^6 cells/ml and were added (0.2 ml/well) to the endothelial cell culture (seeded 24 hours previously), as well as to wells of plastic and controls previously treated with collagen. The plates were then incubated at 37° C. and, 20 minutes later, the wells were washed three times with fresh medium, and then their fluorescence was read using a Fluoroskan Ascent FL (Labsystems, Manchester, UK). The number of adhering tumor cells was quantified with arbitrary fluorescence units based on the percentage relative to the initial number of B16M-F10 cells added to the HSE culture (20). The damage caused to the B16M-F10 cells during their adhesion in vitro to the HSE was evaluated as described previously (21) using tumor cells labeled with calcein-AM (Molecular Probes, Eugene, Oreg., USA). The integrity of the B16M-F10 cells cultivated on their own was evaluated by exclusion of trypan blue and measuring the lactate dehydrogenase released to the extracellular medium (22). The other reagents used in the tumoral cytotoxicity experiments were from Sigma.
Recombinant murine TNF- (2×10^7 U/mg of protein) and recombinant murine interferon-(IFN-; 10^5 U/mg of protein) were obtained from Sigma. […]
HSE cells, previously cultured for 24 hours [±polyphenol(s), added 12 hours from seeding and removed by washing 60 minutes later], were cocultured with B16M-F10 cells previously cultured for 72 hours [±polyphenol(s), as in FIG. 2]. […] In the tests of endothelium-induced cytotoxicity on the B16M-F10 cells, the tumor damage (expressed as the percentage of tumor cells that lost viability during the incubation period of 4-6 hours, see the methodology) was determined after 6 hours of incubation. […]

Marks after values point to notes of the source that are not given here.

As to `COc1cc(/C=C/c2ccc(O)cc2)cc(OC)c1` [PTER, pterostilbene], in the data set on B16M-F10, the Volume of metastases is 14 ± 4** percentage of liver volume and the Density of metastases is 18 ± 4** number of foci/100 mm^3. Further, the “Tumor cells Cytotoxicity (% of adhering)” value in the data set with B16M-F10 cells / HSE is given as 19 ± 3* % of adhering.
Take `O=c1c(O)c(-c2ccc(O)c(O)c2)oc2cc(O)cc(O)c12` [QUER, quercetin]: in the data set with B16M-F10, the Volume of metastases was 12 ± 3** percentage of liver volume and the Density of metastases was 15 ± 4** number of foci/100 mm^3. The “increase of the death of B16M-F10 cells induced by the HSE” value with B16M-F10 cells / HSE (brief exposure (60 minutes)) was around 48%. Moreover, the “Tumor cells Cytotoxicity (% of adhering)” value with B16M-F10 cells / HSE is 52 ± 6** % of adhering.
Consider `Oc1ccc(C=Cc2cc(O)cc(O)c2)cc1` [RESV, resveratrol, reference compound], for which, in the data set on B16M-F10 cells / HSE, the “Tumor cells Cytotoxicity (% of adhering)” value is given as 12 ± 3 % of adhering.
